Results as given in patent publication US20230295157A1, “3-(1H-IMIDAZOL-2-YL)-2,3,8,8A-TETRAHYDROINDOLIZIN-5(1H)-ONE DERIVATIVES USEFUL AS FACTOR XIA INHIBITORS” (JANSSEN PHARMACEUTICA NV, priority 2020, published 2023).
Like-named read-outs stand apart in the source and are kept apart here.

How the values were obtained:
Factor XIa = Factor XIa (Homo sapiens (Human), UniProt P03951); experiment: Factor XIa inhibition assay (FLINT) utilizing a fluorophore-quencher pair peptide substrate; type: biochemical; settings: 30 min preincubation, kinetic reads over 30 min, read-out: FXIa Kin Inh IC50
In short: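 FXIa ([…]) preincubated 30 min with compound (11-point 3-fold dilution, top 100 nM, 2% DMSO), then 15 μM quenched FXI Arg146-based peptide added; Tris pH 7.5, CaCl2, BSA, CHAPS. Fluorescence 485/520 nm read kinetically every 5 min over 30 min at RT; IC50 by 4-parameter fit.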

human plasma kallikrein = human plasma kallikrein (Homo sapiens (Human), UniProt P03952); experiment: Kallikrein inhibition assay (FLINT) utilizing a quenched AMC peptide substrate; type: biochemical; settings: 30 min preincubation, read-out: Kallikrein Kin Inh IC50
In short: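 Fluorogenic Z-Gly-Pro-Arg-AMC cleavage (50 μM substrate, 2 nM kallikrein, Tris pH 7.5, CaCl2, BSA, CHAPS, 2% DMSO) read kinetically at 340/440 nm for 30 min after 30-min compound pre-incubation. Compounds in 11-point 3-fold series from 1 μM; percent inhibition fitted to four-parameter equation for IC50.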

[1] = 5Fam-KLTRAETV-K5Tamra substrate 15 μM
[2] = kinetic reads over 30 min, Z-Gly-Pro-Arg-AMC substrate 50 μM
[3] = 5Fam-[…]-K5Tamra substrate 15 μM

Sequence of Factor XIa (P03951 388-625): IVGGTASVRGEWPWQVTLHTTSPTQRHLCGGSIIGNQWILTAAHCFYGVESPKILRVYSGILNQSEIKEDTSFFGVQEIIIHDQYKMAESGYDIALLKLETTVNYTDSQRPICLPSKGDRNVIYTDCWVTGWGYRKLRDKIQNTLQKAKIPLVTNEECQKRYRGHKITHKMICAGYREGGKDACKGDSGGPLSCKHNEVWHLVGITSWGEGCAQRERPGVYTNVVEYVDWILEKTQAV
Sequence of Factor XIa (P03951 19-387 partner): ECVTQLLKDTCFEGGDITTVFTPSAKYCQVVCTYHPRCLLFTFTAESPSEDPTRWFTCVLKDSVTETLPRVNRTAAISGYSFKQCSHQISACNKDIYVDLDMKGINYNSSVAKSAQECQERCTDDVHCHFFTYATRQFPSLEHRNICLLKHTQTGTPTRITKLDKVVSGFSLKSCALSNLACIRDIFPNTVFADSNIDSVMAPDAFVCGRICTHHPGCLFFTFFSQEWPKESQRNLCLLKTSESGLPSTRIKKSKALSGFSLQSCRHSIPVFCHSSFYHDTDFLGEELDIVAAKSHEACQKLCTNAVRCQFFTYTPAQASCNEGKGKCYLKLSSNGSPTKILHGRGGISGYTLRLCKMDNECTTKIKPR
Sequence of human plasma kallikrein (P03952 391-638): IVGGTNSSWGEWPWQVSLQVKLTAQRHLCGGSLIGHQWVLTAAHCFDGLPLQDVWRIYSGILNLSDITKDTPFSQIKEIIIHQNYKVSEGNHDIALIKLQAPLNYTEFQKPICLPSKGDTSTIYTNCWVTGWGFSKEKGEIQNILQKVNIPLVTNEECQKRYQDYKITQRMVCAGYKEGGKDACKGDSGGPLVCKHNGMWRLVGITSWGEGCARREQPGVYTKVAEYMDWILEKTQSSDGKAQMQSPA
Sequence of human plasma kallikrein (P03952 20-390 partner): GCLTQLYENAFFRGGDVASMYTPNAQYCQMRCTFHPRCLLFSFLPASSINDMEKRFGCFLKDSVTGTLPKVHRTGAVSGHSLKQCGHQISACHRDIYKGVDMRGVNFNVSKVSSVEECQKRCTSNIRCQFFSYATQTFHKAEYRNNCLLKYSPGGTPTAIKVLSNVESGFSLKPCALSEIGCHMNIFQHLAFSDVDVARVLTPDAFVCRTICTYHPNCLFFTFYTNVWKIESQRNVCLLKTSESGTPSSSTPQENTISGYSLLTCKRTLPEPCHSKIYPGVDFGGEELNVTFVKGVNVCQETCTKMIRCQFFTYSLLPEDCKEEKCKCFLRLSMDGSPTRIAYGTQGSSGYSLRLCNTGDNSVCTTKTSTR

IC50 (Factor XIa; [1])	IC50 (human plasma kallikrein; [2])	IC50 (Factor XIa; [3])	IC50 (human plasma kallikrein; μM, kinetic reads)	SMILES
0.3 nM	0.003 µM	–	–	CC(C)(O)CNc1nccc(-c2[nH]c([C@@H]3CC[C@@H]4CC(c5cc(Cl)ccc5-n5cnnn5)=CC(=O)N43)nc2F)c1F [Example 84, (3S,8aR)-7-[5-chloro-2-(tetrazol-1-yl)phenyl]-3-[4-fluoro-5-[3-fluoro-2-[(2-hydroxy-2-methyl-propyl)amino]-4-pyridyl]-1H-imidazol-2-yl]-2,3,8,8a-tetrahydro-1H-indolizin-5-one]
0.7 nM	0.001 µM	–	–	O=C1C=C(c2c(-n3cc(C(F)(F)F)nn3)ccc(Cl)c2F)C[C@H]2CC[C@@H](c3ncc(-c4ccc5[nH]c(=O)ccc5c4)[nH]3)N12 (single isomer, unassigned) [Example 152, 6-[2-[(3S,8a*R)-7-[3-chloro-2-fluoro-6-[4-(trifluoromethyl)triazol-1-yl]phenyl]-5-oxo-2,3,8,8a-tetrahydro-1H-indolizin-3-yl]-1H-imidazol-5-yl]-1H-quinolin-2-one]
1.3 nM	0.0038 µM	–	–	O=C1C=C(c2c(-n3cnnn3)ccc(Cl)c2F)C[C@H]2CC[C@@H](c3ncc(-c4ccnc5ccsc45)[nH]3)N12 [Example 387, (3S,8aR)-7-(3-chloro-2-fluoro-6-(1H-tetrazol-1-yl)phenyl)-3-(5-(thieno[3,2-b]pyridin-7-yl)-1H-imidazol-2-yl)-2,3,8,8a-tetrahydroindolizin-5(1H)-one]
–	0.492 µM	> 200 nM	–	CN(C)c1ccccc1-c1c[nH]c([C@@H]2CCC3CC(c4c(-n5cnnn5)ccc(Cl)c4F)=CC(=O)N32)n1 (stereo partly drawn) [Example 289, (3S)-7-(3-Chloro-2-fluoro-6-(1H-tetrazol-1-yl)phenyl)-3-(4-(2-(dimethylamino)phenyl)-1H-imidazol-2-yl)-2,3,8,8a-tetrahydroindolizin-5(1H)-one]
5.3 nM	0.0129 µM	–	–	COc1ccccc1-c1c[nH]c([C@@H]2CCC3CC(c4c(-n5cnnn5)ccc(Cl)c4F)=CC(=O)N32)n1 (stereo partly drawn) [Example 317, (3S)-7-(3-Chloro-2-fluoro-6-(1H-tetrazol-1-yl)phenyl)-3-(4-(2-methoxyphenyl)-1H-imidazol-2-yl)-2,3,8,8a-tetrahydroindolizin-5(1H)-one]
–	0.0724 µM	22.5 nM	–	[2H][C@@]12CC[C@@H](c3ncc(-c4ccnc(CO)c4F)[nH]3)N1C(=O)C=C(c1c(-n3cnnn3)ccc(Cl)c1F)C2 (relative stereo) [Example 48, (3S*,8aS)-7-(3-chloro-2-fluoro-6-(1H-tetrazol-1-yl)phenyl)-3-(5-(3-fluoro-2-(hydroxymethyl)pyridin-4-yl)-1H-imidazol-2-yl)-2,3,8,8a-tetrahydroindolizin-5(1H)-one-8a-d]
–	0.0049 µM	2.6 nM	–	O=C1C=C(c2c(-n3cnnn3)ccc(Cl)c2F)C[C@@H]2CC[C@@H](c3ncc(-c4ccnc(N[C@H]5CCOC5)c4F)[nH]3)N12 (single isomer, unassigned) [Example 74, (3S,8aS*)-7-(3-chloro-2-fluoro-6-(1H-tetrazol-1-yl)phenyl)-3-(5-(3-fluoro-2-(((S)-tetrahydrofuran-3-yl)amino)pyridin-4-yl)-1H-imidazol-2-yl)-2,3,8,8a-tetrahydroindolizin-5(1H)-one]
–	0.0057 µM	2.9 nM	–	O=C1C=C(c2c(-n3cnnn3)ccc(Cl)c2F)C[C@H]2CC[C@@H](c3ncc(-c4ccnc(N5CC6(COC6)C5)c4F)[nH]3)N12 (single isomer, unassigned) [Example 108, (3S*,8aR)-7-(3-chloro-2-fluoro-6-(1H-tetrazol-1-yl)phenyl)-3-(5-(3-fluoro-2-(2-oxa-6-azaspiro[3.3]heptan-6-yl)pyridin-4-yl)-1H-imidazol-2-yl)-2,3,8,8a-tetrahydroindolizin-5(1H)-one]
0.4 nM	0.001 µM	–	–	CNc1n[nH]c2cc(-c3cnc([C@@H]4CC[C@H]5CC(c6c(-n7cnnn7)ccc(Cl)c6F)=CC(=O)N54)[nH]3)ccc12 [Example 265, (3S,8aS)-7-[3-Chloro-2-fluoro-6-(tetrazol-1-yl)phenyl]-3-[5-[3-(methylamino)-1H-indazol-6-yl]-1H-imidazol-2-yl]-2,3,8,8a-tetrahydro-1H-indolizin-5-one]
0.5 nM	0.0096 µM	–	–	[2H]c1cc(-c2c[nH]c([C@@H]3CC[C@@H]4CC(c5c(F)c(Cl)cc([2H])c5-n5cnnn5)=CC(=O)N43)n2)c(F)nc1N [Example 125, (3S,8aR)-3-(4-(6-amino-2-fluoropyridin-3-yl-5-d)-1H-imidazol-2-yl)-7-(3-chloro-2-fluoro-6-(1H-tetrazol-1-yl)phenyl-5-d)-2,3,8,8a-tetrahydroindolizin-5(1H)-one]
> 100 nM	0.73 µM	–	–	CC(=O)Nc1cnc(C(F)(F)F)cc1-c1cnc([C@@H]2CC[C@H]3CC(c4c(-n5cnnn5)ccc(Cl)c4F)=CC(=O)N32)[nH]1 [Example 244, N-[4 [2-[(3S,8aS)-7-[3-Chloro-2-fluoro-6-(tetrazol-1-yl)phenyl]-5-oxo-2,3,8,8a-tetrahydro-1H-indolizin-3-yl]-1H-imidazol-5-yl]-6-(trifluoromethyl)-3-pyridyl]acetamide]
–	0.0055 µM	0.5 nM	–	Nc1nccc(-c2cnc([C@@H]3CC[C@@H]4CC(c5cc(Cl)ccc5-n5cnnn5)=CC(=O)N43)[nH]2)c1F (single isomer, unassigned) [Example 90, (3S*,8aR)-3-(5-(2-amino-3-fluoropyridin-4-yl)-1H-imidazol-2-yl)-7-(5-chloro-2-(1H-tetrazol-1-yl)phenyl)-2,3,8,8a-tetrahydroindolizin-5(1H)-one]
1.5 nM	0.0019 µM	–	–	O=C1C=C(c2c(-n3cnnn3)ccc(Cl)c2F)C[C@H]2CC[C@@H](c3nc(F)c(-c4ccnc(-n5cccn5)c4)[nH]3)N12 [Example 88, (3S,8aR)-7-[3-chloro-2-fluoro-6-(tetrazol-1-yl)phenyl]-3-[4 fluoro-5-(2-pyrazol-1-yl-4-pyridyl)-1H-imidazol-2-yl]-2,3,8,8a-tetrahydro-1H-indolizin-5-one]
> 100 nM	–	–	> 1 µM	Nc1ccncc1-c1c[nH]c([C@@H]2CCC3CC(c4c(-n5cnnn5)ccc(Cl)c4F)=CC(=O)N32)n1 (stereo partly drawn) [Example 253, (3S)-3-[4-(4-Amino-3-pyridyl)-1H-imidazol-2-yl]-7-[3-chloro-2-fluoro-6-(tetrazol-1-yl)phenyl]-2,3,8,8a-tetrahydro-1H-indolizin-5-one]
0.2 nM	0.0013 µM	–	–	COC(=O)Nc1ccc(-c2cnc([C@@H]3CC[C@@H]4CC(c5c(-n6cnnn6)ccc(Cl)c5F)=CC(=O)N43)[nH]2)cc1 [Example 341, Methyl (4-(2-((3S,8aR)-7-(3-chloro-2-fluoro-6-(1H-tetrazol-1-yl)phenyl)-5-oxo-1,2,3,5,8,8a-hexahydroindolizin-3-yl)-1H-imidazol-5-yl)phenyl)carbamate]
0.3 nM	0.0019 µM	–	–	COC(=O)Nc1ccc(-c2cnc([C@@H]3CC[C@H]4CC(c5c(-n6cnnn6)ccc(Cl)c5F)=CC(=O)N43)[nH]2)cc1 [Example 340, Methyl (4-(2-((3S,8aS)-7-(3-chloro-2-fluoro-6-(1H-tetrazol-1-yl)phenyl)-5-oxo-1,2,3,5,8,8a-hexahydroindolizin-3-yl)-1H-imidazol-5-yl)phenyl)carbamate]
